Laboratory results from patent US6989371B1, “Bombesin analogs for treatment of cancer” (Dabur Research Foundation, priority 1996, dated 2006).
Non-standard residues stand in square brackets, D forms with d. Residues, ends and D or L forms follow the SMILES beside them. Aib = CC(C)(N)C(=O)O

Legend:
Assay in all cases: MTT cytotoxicity assay, 72 hours (Example 13)
Format in all cases: cell-based, human
A549 (lung) = test system: A549 (lung)
Protocol: (§1) The cytotoxic activity of other synthesized bombesin analogs was tested on eight human tumor cell lines namely HT-29, SW620, PTC (all colon), PA-1 (ovary), A549 (lung), HBL100(breast), MOLT-4 (leukemia) and DU145 (prostate). The tumor cells were collected at exponential growth phase and resuspended in medium (1.5×10^6) cells/ml in RPMI 1640 containing 10% FBS). 150 μl of medium was added to the wells of a 96-well tissue culture plate (Nunc, Denmark) followed by 30 μl of cell suspension. The plate was left in incubator (37° C., 5% CO2 overnight. 20 μl of the peptide (10^−7×10^×10M concentration) was added to marked wells of the 96-well plate. Each concentration was plated in cells served as blanks. A total volume of 200 μl was ensured in each well and plate was left in incubator (37° C., 5% CO2). After 72 hours of incubation an MTT assay was performed and percentage cytotoxicity was calculated with respect to control cells. Following tables show the cytotoxicity achieved on various cell lines at different concentrations.

DU145 (prostate) = test system: DU145 (prostate)
Protocol: as §1

HBL100 (breast) = details: HBL
Protocol: as §1

HT-29 (colon) = test system: HT-29 (colon)
Protocol: as §1

MOLT-4 (leukemia) = test system: MOLT-4 (leukemia)
Protocol: as §1

PA-1 (ovary) = test system: PA-1 (ovary)
Protocol: as §1

PTC (colon) = test system: PTC (colon)
Protocol: as §1

SW620 (colon) = test system: SW620 (colon)
Protocol: as §1

Row | Structure (SMILES) | Percent Cytotoxicity (A549 (lung); A549, 1 nM) [%] | Percent Cytotoxicity (A549 (lung); A549, 10 nM) [%] | Percent Cytotoxicity (A549 (lung); A549, 100 nM) [%] | Percent Cytotoxicity (A549 (lung); A549, 100 PM) [%] | Percent Cytotoxicity (DU145 (prostate); DU145, 1 nM) [%] | Percent Cytotoxicity (DU145 (prostate); DU145, 10 nM) [%] | Percent Cytotoxicity (DU145 (prostate); DU145, 100 nM) [%] | Percent Cytotoxicity (DU145 (prostate); DU145, 100 PM) [%] | Percent Cytotoxicity (HBL100 (breast); 1 nM) [%] | Percent Cytotoxicity (HBL100 (breast); 10 nM) [%] | Percent Cytotoxicity (HBL100 (breast); 100 nM) [%] | Percent Cytotoxicity (HBL100 (breast); 100 PM) | Percent Cytotoxicity (HT-29 (colon); HT29, 1 nM) [%] | Percent Cytotoxicity (HT-29 (colon); HT29, 10 nM) [%] | Percent Cytotoxicity (HT-29 (colon); HT29, 100 nM) | Percent Cytotoxicity (HT-29 (colon); HT29, 100 PM) [%] | Percent Cytotoxicity (MOLT-4 (leukemia); MOLT4, 1 nM) [%] | Percent Cytotoxicity (MOLT-4 (leukemia); MOLT4, 10 nM) [%] | Percent Cytotoxicity (MOLT-4 (leukemia); MOLT4, 100 nM) | Percent Cytotoxicity (MOLT-4 (leukemia); MOLT4, 100 PM) [%] | further results
1 | CCCC(CCC)(NC(=O)[C@@H](NC(=O)[C@H](C)NC(=O)[C@@H](Cc1c[nH]c2ccccc12)NC(=O)[C@H](CCC(N)=O)NC(=O)[C@H](N)Cc1ccccc1)C(C)C)C(=O)N[C@@H](Cc1c[nH]cn1)C(=O)N[C@@H](CC(C)C)C(N)=O [SEQ ID: 8, D-Phe-Gln-D-Trp-Ala-Val-Dpg-His-Leu-NH2] | 19.7 ± 3.1 | 20.7 ± 2.2 | 21.7 ± 3.3 | 17.0 ± 2.7 | 21.4 ± 6.2 | 22.5 ± 2.2 | 19.1 ± 2.1 | 28.1 ± 3.5 | 12.2 ± 1.9 | 14.4 ± 2.1 | 11.9 ± 2.1 | 12.1 ± 1.9% | 34.7 ± 3.3 | 18.9 ± 4.2 | 34.8 ± 4.2% | 21.4 ± 3.1 | 9.3 ± 0.2 | 12.8 ± 3.3 | 2.6 ± 0.1% | 16.6 ± 3.1 | Percent Cytotoxicity (PA-1 (ovary); PA-1, 1 nM): 23.8 ± 4.2%; Percent Cytotoxicity (PA-1 (ovary); PA-1, 10 nM): 20.4 ± 3.0%; Percent Cytotoxicity (PA-1 (ovary); PA-1, 100 nM): 10.4 ± 3.7%; Percent Cytotoxicity (PA-1 (ovary); PA-1, 100 PM): 23.3 ± 5.5%; Percent Cytotoxicity (PTC (colon); 1 nM): 12.5 ± 1.7%; Percent Cytotoxicity (PTC (colon); 10 nM): 5.4 ± 1.7%; Percent Cytotoxicity (PTC (colon); 100 nM): 8.7 ± 2.1%; Percent Cytotoxicity (PTC (colon); 100 PM): 12.3 ± 1.9%; Percent Cytotoxicity (SW620 (colon); SW620, 1 nM): 20.6 ± 3.9%; Percent Cytotoxicity (SW620 (colon); SW620, 10 nM): 33.0 ± 3.8%; Percent Cytotoxicity (SW620 (colon); SW620, 100 nM): 29.4 ± 2.9%; Percent Cytotoxicity (SW620 (colon); SW620, 100 PM): 20.6 ± 3.9%
2 | CC[C@H](C)[C@H](NC(=O)[C@H](Cc1c[nH]cn1)NC(=O)CNC(=O)[C@@H](NC(=O)C(C)(C)NC(=O)[C@H](Cc1c[nH]c2ccccc12)NC(=O)[C@H](CCC(N)=O)NC(=O)[C@H](N)Cc1ccccc1)C(C)C)C(N)=O [SEQ ID: 6, D-Phe-Gln-Trp-Aib-Val-Gly-His-Ile-NH2] (H-[dF]QW[Aib]VGHI-NH2; N-terminus assumed) | 13.0 ± 0.8 | 3.2 ± 0.1 | 1.9 ± 0.6 | 12.4 ± 0.7 | 3.9 ± 5.2 | 16.6 | 13.7 ± 0.9 | 12.1 ± 0.8 | 1.2 ± 0.3 | 6.0 ± 0.4 | 17.0 ± 0.5 | NIL | 26.7 ± 4.2 | 6.8 ± 0.7 | NIL | 16.8 ± 0.5 | 0.8 ± 0.1 | 20.4 ± 4.3 | NIL | 11.0 ± 0.6 | Percent Cytotoxicity (PA-1 (ovary); PA-1, 1 nM): 7.4 ± 1.0%; Percent Cytotoxicity (PA-1 (ovary); PA-1, 10 nM): 8.7 ± 1.9%; Percent Cytotoxicity (PA-1 (ovary); PA-1, 100 nM): 9.2 ± 1.0%; Percent Cytotoxicity (PA-1 (ovary); PA-1, 100 PM): 11.1 ± 2.9%; Percent Cytotoxicity (PTC (colon); 1 nM): 9.1 ± 0.7%; Percent Cytotoxicity (PTC (colon); 10 nM): 10.4 ± 0.8%; Percent Cytotoxicity (PTC (colon); 100 nM): 24.7 ± 5.2%; Percent Cytotoxicity (PTC (colon); 100 PM): 10.1 ± 0.6%; Percent Cytotoxicity (SW620 (colon); SW620, 1 nM): 33.5 ± 5.2%; Percent Cytotoxicity (SW620 (colon); SW620, 10 nM): 38.1 ± 7.3%; Percent Cytotoxicity (SW620 (colon); SW620, 100 nM): 23.5 ± 5.1%; Percent Cytotoxicity (SW620 (colon); SW620, 100 PM): 24.8 ± 4.2%
3 | CC(C)C[C@H](NC(=O)[C@H](Cc1c[nH]cn1)NC(=O)C(C)(C)NC(=O)[C@@H](NC(=O)[C@H](C)NC(=O)[C@@H](Cc1c[nH]c2ccccc12)NC(=O)[C@H](CCC(N)=O)NC(=O)[C@H](N)Cc1ccccc1)C(C)C)C(N)=O [SEQ ID: 5, D-Phe-Gln-D-Trp-Ala-Val-Aib-His-Leu-NH2] (H-[dF]Q[dW]AV[Aib]HL-NH2; N-terminus assumed) | 20.2 ± 4.2 | 22.2 ± 3.1 | 30.3 ± 4.3 | 25.2 ± 5.6 | 10.6 ± 0.9 | 22.0 ± 3.4 | 32.3 ± 3.8 | 29.3 ± 2.9 | 31.6 ± 5.3 | 16.7 ± 3.6 | 19.4 ± 4.5 | 19.3 ± 2.7% | 27.9 ± 2.9 | 44.4 ± 4.0 | 35.7 ± 2.8% | 42.0 ± 2.0 | 6.4 ± 0.2 | 4.3 ± 0.6 | NIL | 8.7 ± 0.6 | Percent Cytotoxicity (PA-1 (ovary); PA-1, 1 nM): 16.0 ± 3.9%; Percent Cytotoxicity (PA-1 (ovary); PA-1, 10 nM): 20.9 ± 5.3%; Percent Cytotoxicity (PA-1 (ovary); PA-1, 100 nM): 8.8 ± 1.9%; Percent Cytotoxicity (PA-1 (ovary); PA-1, 100 PM): 25.6 ± 6.3%; Percent Cytotoxicity (PTC (colon); 1 nM): 23.0 ± 4.2%; Percent Cytotoxicity (PTC (colon); 10 nM): 15.9 ± 2.4%; Percent Cytotoxicity (PTC (colon); 100 nM): 20.4 ± 4.2%; Percent Cytotoxicity (PTC (colon); 100 PM): 13.9 ± 2.2%; Percent Cytotoxicity (SW620 (colon); SW620, 1 nM): 29.7 ± 4.2%; Percent Cytotoxicity (SW620 (colon); SW620, 10 nM): 30.1 ± 4.0%; Percent Cytotoxicity (SW620 (colon); SW620, 100 nM): 25.6 ± 4.2%; Percent Cytotoxicity (SW620 (colon); SW620, 100 PM): 38.0 ± 3.8%
